Test results published in PubChem BioAssay AID256 (DTP/NCI, 2004).
“And” between values parts separate entries of the source, which are not always exact repeats. Identical values can stand only once. Toxic doses and inconclusive results are not listed.

System: CD2F1 mice, L1210 leukemia ip, survival T/C
Assay: NCI In Vivo Anticancer Drug Screen. Data for tumor model L1210 Leukemia (intraperitoneal) in CD2F1 (CDF1) mice
Details: endpoint: mean survival time, higher = longer survival
Procedure, shortened: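 Implant tumor; dose compound or vehicle; measure endpoint in both groups; report treated divided by control.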

[1] = dose: 12.5 mg/kg/injection, schedule: Q01DX009 (ip), vehicle: saline
[2] = dose: 25.0 mg/kg/injection, schedule: Q01DX009 (ip), vehicle: saline
[3] = dose: 100.0 mg/kg/injection, schedule: Q04DX003 (ip), vehicle: saline with Tween-80
[4] = dose: 200.0 mg/kg/injection, schedule: Q04DX003 (ip), vehicle: saline with Tween-80
[5] = dose: 400.0 mg/kg/injection, schedule: Q04DX003 (ip), vehicle: saline with Tween-80
[6] = dose: 100.0 mg/kg/injection, schedule: Q04DX003 (ip), vehicle: saline
[7] = dose: 200.0 mg/kg/injection, schedule: Q04DX003 (ip), vehicle: saline
[8] = dose: 25.0 mg/kg/injection, schedule: Q04DX003 (ip), vehicle: saline with Tween-80
[9] = dose: 50.0 mg/kg/injection, schedule: Q04DX003 (ip), vehicle: saline with Tween-80
[10] = dose: 25.0 mg/kg/injection, schedule: Q01DX009 (ip), vehicle: saline with Tween-80
[11] = dose: 50.0 mg/kg/injection, schedule: Q01DX009 (ip), vehicle: saline with Tween-80
[12] = dose: 100.0 mg/kg/injection, schedule: Q01DX009 (ip), vehicle: saline with Tween-80

CCOC(=O)C1=C(C#N)C2(CCC(OCc3ccccc3)CC2)C(=O)O1 (centres undefined)
T/C [1]: 95 % of control | T/C (dose: 12.5 mg/kg/injection, schedule: Q01DX009 (ip), vehicle: suspension in saline): 106 % of control | T/C [2]: 100 % of control | T/C (dose: 25.0 mg/kg/injection, schedule: Q01DX009 (ip), vehicle: suspension in saline): 106 % of control | T/C (dose: 50.0 mg/kg/injection, schedule: Q01DX009 (ip), vehicle: saline): 107 % of control | T/C (dose: 50.0 mg/kg/injection, schedule: Q01DX009 (ip), vehicle: suspension in saline): 108 % of control | T/C (dose: 100.0 mg/kg/injection, schedule: Q01DX009 (ip), vehicle: saline): 106 % of control | T/C (dose: 100.0 mg/kg/injection, schedule: Q01DX009 (ip), vehicle: suspension in saline): 106 % of control | T/C (dose: 200.0 mg/kg/injection, schedule: Q01DX009 (ip), vehicle: saline): 106 % of control | T/C (dose: 200.0 mg/kg/injection, schedule: Q01DX009 (ip), vehicle: suspension in saline): 100 % of control | T/C (dose: 400.0 mg/kg/injection, schedule: Q01DX009 (ip), vehicle: suspension in saline): 108 % of control

CCCCCCCCCC(C(=O)OCC)(C(=O)OCC)C1CCCC1
T/C (dose: 100.0 mg/kg/injection, schedule: Q01DX001 (ip), vehicle: saline sonified): 106 % of control | T/C [3]: 100 % of control | T/C (dose: 200.0 mg/kg/injection, schedule: Q01DX001 (ip), vehicle: saline sonified): 100 % of control | T/C [4]: 100 % of control | T/C (dose: 400.0 mg/kg/injection, schedule: Q01DX001 (ip), vehicle: saline sonified): 90 % of control | T/C [5]: 97 % of control

C=CCSc1nc(N)nc2nc[nH]c12
T/C (dose: 100.0 mg/kg/injection, schedule: Q04DX003 (ip), vehicle: saline sonified): 107 % of control | T/C (dose: 200.0 mg/kg/injection, schedule: Q04DX003 (ip), vehicle: saline sonified): 96 % of control

[Br][Pt+2][Br].[NH-]c1ccc(F)cc1.[NH-]c1ccc(F)cc1
T/C (dose: 3.13 mg/kg/injection, schedule: Q04DX003 (ip), vehicle: distilled water + Tween-80): 101 % of control | T/C (dose: 6.25 mg/kg/injection, schedule: Q04DX003 (ip), vehicle: distilled water + Tween-80): 104 % of control | T/C (dose: 12.5 mg/kg/injection, schedule: Q04DX003 (ip), vehicle: distilled water + Tween-80): 104 % of control | T/C (dose: 25.0 mg/kg/injection, schedule: Q04DX003 (ip), vehicle: distilled water + Tween-80): 108 % of control | T/C (dose: 50.0 mg/kg/injection, schedule: Q04DX003 (ip), vehicle: distilled water + Tween-80): 110 % of control | T/C (dose: 100.0 mg/kg/injection, schedule: Q04DX003 (ip), vehicle: distilled water + Tween-80): 113 % of control

CNP1(N(C)C)=NP(NC)(N(C)C)=NP(NC)(N(C)C)=N1 (centres undefined)
T/C [6]: 98 % of control | T/C [7]: 98 % of control

COCC1OC(COC)C(OC)C1OC (centres undefined)
T/C (dose: 100.0 mg/kg/injection, schedule: Q04DX003 (ip), vehicle: acetone): 102 % of control | T/C (dose: 200.0 mg/kg/injection, schedule: Q04DX003 (ip), vehicle: acetone): 102 % of control | T/C (dose: 400.0 mg/kg/injection, schedule: Q04DX003 (ip), vehicle: acetone): 94 % of control

O=c1c2ccccc2sc2cccc(Sc3ccccc3)c12
T/C [3]: 95 % of control | T/C [4]: 96 % of control | T/C [5]: 91 % of control

CCCN(C)C(=O)N(CCCl)N=O
T/C (dose: 39.0 mg/kg/injection, schedule: Q01DX001 (ip), vehicle: other): 306 % of control | T/C (dose: 62.5 mg/kg/injection, schedule: Q01DX001 (ip), vehicle: other): 197 % of control | T/C (dose: 78.0 mg/kg/injection, schedule: Q01DX001 (ip), vehicle: other): 448 % of control | T/C (dose: 125.0 mg/kg/injection, schedule: Q01DX001 (ip), vehicle: other): 320 % of control | T/C (dose: 250.0 mg/kg/injection, schedule: Q01DX001 (ip), vehicle: other): 102 % of control

COc1ccc(Cc2nccc3cc(OC)c(OC)cc23)cc1OC
T/C (dose: 9.4 mg/kg/injection, schedule: Q04DX003 (ip), vehicle: water): 115 % of control | T/C (dose: 18.7 mg/kg/injection, schedule: Q04DX003 (ip), vehicle: water): 93 % of control | T/C (dose: 37.5 mg/kg/injection, schedule: Q04DX003 (ip), vehicle: water): 96 % of control | T/C (dose: 50.0 mg/kg/injection, schedule: Q01DX009 (ip), vehicle: water): 96 % of control

N=[N+]=CC(=O)OCC(N)C(=O)O (centres undefined)
T/C (dose: 1.0 mg/kg/injection, schedule: Q03HX016 (ip), vehicle: saline): 168 % of control | T/C (dose: 2.0 mg/kg/injection, schedule: Q03HX016 (ip), vehicle: saline): 168 % of control | T/C (dose: 2.0 mg/kg/injection, schedule: Q03HX024 (ip), vehicle: saline): 153 % of control and 163 % of control | T/C (dose: 4.0 mg/kg/injection, schedule: Q03HX016 (ip), vehicle: saline): 182 % of control | T/C (dose: 4.0 mg/kg/injection, schedule: Q03HX024 (ip), vehicle: saline): 171 % of control and 174 % of control | T/C (dose: 8.0 mg/kg/injection, schedule: Q03HX016 (ip), vehicle: saline): 115 % of control | T/C (dose: 8.0 mg/kg/injection, schedule: Q03HX024 (ip), vehicle: saline): 113 % of control and 115 % of control | T/C [1]: 167 % of control | T/C (dose: 25.0 mg/kg/injection, schedule: Q01DX007 (ip), vehicle: saline): 122 % of control | T/C [2]: 100 % of control | T/C (dose: 50.0 mg/kg/injection, schedule: Q01DX007 (ip), vehicle: saline): 96 % of control | T/C (dose: 50.0 mg/kg/injection, schedule: Q03DX003 (ip), vehicle: saline): 151 % of control

CC1CCN1Cc1ccccc1 (centres undefined)
T/C (dose: 12.5 mg/kg/injection, schedule: Q01DX009 (ip), vehicle: acetone): 98 % of control | T/C (dose: 25.0 mg/kg/injection, schedule: Q01DX009 (ip), vehicle: acetone): 98 % of control | T/C (dose: 50.0 mg/kg/injection, schedule: Q01DX009 (ip), vehicle: acetone): 95 % of control

NC(CO)CO
T/C [6]: 98 % of control | T/C [7]: 95 % of control | T/C (dose: 400.0 mg/kg/injection, schedule: Q04DX003 (ip), vehicle: saline): 98 % of control

COc1ccc(C2=CC(=O)N(C(C)C)C2=O)cc1
T/C [8]: 116 % of control | T/C [9]: 93 % of control | T/C [3]: 98 % of control | T/C [4]: 108 % of control

COc1ccc2[nH]cc(CN(C)C)c2c1
T/C [10]: 100 % of control | T/C (dose: 33.0 mg/kg/injection, schedule: Q01DX009 (ip), vehicle: saline with Tween-80): 101 % of control | T/C [11]: 106 % of control | T/C [12]: 105 % of control | T/C [3]: 88 % of control

O=C(CC(=O)c1ccccc1)c1ccccc1.O=C(CC(=O)c1ccccc1)c1ccccc1.[Cl][Sn][Cl]
T/C [3]: 90 % of control | T/C [4]: 94 % of control

CC1=C(C)CS(=O)(=O)C1
T/C [3]: 95 % of control

OCN(CO)c1nc(N(CO)CO)nc(N(CO)CO)n1
T/C (dose: 6.3 mg/kg/injection, schedule: Q01DX009 (ip), vehicle: saline with Tween-80): 92 % of control | T/C (dose: 12.5 mg/kg/injection, schedule: Q01DX009 (ip), vehicle: saline with Tween-80): 96 % of control | T/C [10]: 87 % of control

CN(C)C1CCC(Nc2nc(Nc3cc(Cl)cc(Cl)c3)nc3ccccc23)CC1 (centres undefined)
T/C [10]: 102 % of control | T/C [8]: 101 % of control | T/C [11]: 96 % of control | T/C [9]: 103 % of control | T/C [3]: 98 % of control

Cc1ccnc([N+](=O)[O-])c1
T/C [3]: 102 % of control | T/C [4]: 96 % of control | T/C [5]: 97 % of control

C[N+](C)(C)Cc1ccc([N+](=O)[O-])cc1
T/C (dose: 5.0 mg/kg/injection, schedule: Q01DX001 (ip), vehicle: saline): 98 % of control | T/C (dose: 10.0 mg/kg/injection, schedule: Q01DX001 (ip), vehicle: saline): 106 % of control | T/C (dose: 20.0 mg/kg/injection, schedule: Q01DX001 (ip), vehicle: saline): 101 % of control | T/C (dose: 40.0 mg/kg/injection, schedule: Q01DX001 (ip), vehicle: saline): 98 % of control | T/C (dose: 80.0 mg/kg/injection, schedule: Q01DX001 (ip), vehicle: saline): 98 % of control

Nc1nc(N)c(-c2cccc(Cl)c2)c(CBr)n1
T/C (dose: 6.25 mg/kg/injection, schedule: Q01DX009 (ip), vehicle: saline): 102 % of control | T/C [1]: 103 % of control | T/C [2]: 109 % of control

CN(C)c1ccc(/C=N/NC(=O)CNC(=O)Nc2cccc(C(F)(F)F)c2)cc1
T/C [11]: 96 % of control | T/C [12]: 92 % of control | T/C (dose: 200.0 mg/kg/injection, schedule: Q01DX009 (ip), vehicle: saline with Tween-80): 88 % of control
